The values that follow come from patent US11884647B2, “Compounds and methods for targeting pathogenic blood vessels” (THE REGENTS OF THE UNIVERSITY OF CALIFORNIA, priority 2019, dated 2024).

SMILES strings stand for the structures.

The test system of this test is tumor endothelial cells (LL/2 lung cancer tumor). Put plainly: Lung LL2 ex vivo model of tumor angiogenesis. Format: cell-based, mouse. Conditions: for cytotoxicity at 20 µM / cytotoxicity at 40 µM / cytotoxicity at 10 µM: Mus musculus, Endothelial cell, 48 h, read-out: Cell death; for Cell death: Lung LL2 ex vivo, Conc. 40 μm, drug treatment two days. As for the experimental part: This example describes a procedure to prepare a primary tumor angiogenesis model for assessing the efficacy of anti-cancer candidate agents.
1. The day before the experiment, spray all necessary tools with 70% ethanol and sterilize them under UV light overnight, including blade, dissecting and micro-dissecting scissors and […]. Place 24-well dishes at 4° C. to pre-chill plates and thaw Matrigel 24 hours before tumor dissection.
2. Spray 70% ethanol on working bench. Prepare two sterile petri dishes with 10 mL sterile PBS. Steps 3 and 4 are for mouse tumor models. For fresh human tumor, directly go to step 5.
3. Euthanize the tumor-bearing mice. Spray 70% ethanol on the mouse and remove the tumor using sterilized dissecting tools (avoid the fur). Rinse the tumor in petri dish with sterile PBS to remove ethanol and fur. Transfer the tumor to a new petri dish with PBS for dissection. Place the dish on ice.
4. Using pre-chilled sterile pipet tips to seed regular Matrigel in 24 well plates on ice. Matrigel (30 μL) is dropped in the middle of each well without touching the edge of the well (avoid introducing bubbles if possible).
5. Cut the tumor in halves using the sterile blade. Identify and isolate healthy tumor tissue that is not necrotic and is within the tumor capsule. Cut the healthy tumor tissue into small pieces. For instance, a suitable size for the tumor tissue is 0.5 mm (H)×0.5 mm (L)×0.3 mm (D) with a total volume of 0.075 mm^3.
6. Gently transfer and embed each tumor piece in the Matrigel drop in the 24-well plate. Place the embedded piece in the bottom and middle of each Matrigel drop. Keep the plate on ice all the time.
7. After seeding the tumor pieces, plates are incubated in a 37° C. cell culture incubator without medium for 10 minutes in order for the Matrigel to solidify.
8. Endothelial Growth Medium (0.5 mL) is added to each well and incubated at 37° C. with 5% CO2. Wait until the new endothelial cells have grown out of the tumor or are larger than 3 mm in diameter until treatment. This usually takes 4 days for the LL2 Lewis lung cancer model and 7 days for the CT26 colon cancer model. For human tumor models, the growth time is typically 2-3 weeks, depending on the tumor type. Media is changed every 4 days during prolonged culture. Typically, when the tumor tissue grows to 2 mm in diameter, it is good for drug testing. A size of about 3 mm in diameter can make visualization easier.
9. When the assay is ready to be analyzed for cell death (e.g., 48 hours after drug addition), prepare the dye mixture by mixing 6 μL of green dye to stain live cells (5 mg/mL Fluorescein diacetate or FDA in DMSO) with 30 μL of red dye (2.5 mg/mL Propidium iodide or PI in PBS) to stain dead cells in an Eppendorf tube. The FDA dye needs to be stored frozen in a −20° C. freezer because it has a labile ester bond.
10. Add 1 μL of the dye mixture to each well of the 24-well dish. It is usually performed one 24-well dish at a time given the amount of time needed to take pictures (the green dye is not as stable in the cells in the long term).
11. Gently rock the dish a few times to mix the dye with the media in the wells and incubate the dish at 37° C. for 10 min (too long incubation can make the green signal too intense).
12. Wash each well with 0.5 mL of sterile PBS and then add 0.5 mL of phenol red free SFM to each well. Alternatively 0.5 mL of regular Endothelial Cell Growth Media can be added to each well if this well needs to be continuously maintained after the experiment.
13. Look through all wells on an inverted microscope using the 2× objective lens to observe morphological changes.
14. Taking pictures in the red and green channels would allow not only the recording of the result but also more accurate quantitation of the result. To take pictures for all the wells, first pick a well that has robust red and green signals. […]

With `CCCCCCCCCCCCCCOc1ccc(S(=O)(=O)c2cnc3ccc([S+](C)[O-])cc3c2N2CCC(N3CCC(N4CCC(O)CC4)CC3)CC2)cc1F` (centres unmarked) [compound 373, 1″-(3-((3-fluoro-4-(tetradecyloxy)phenyl)sulfonyl)-6-(methylsulfinyl)quinolin-4-yl)-[1,4′:1′,4″- terpiperidin]-4-ol], the cytotoxicity at 20 µM turned out to be 20%.
Regarding `CCCCOc1ccc(S(=O)(=O)c2cnc3ccc(C(=O)OCC)cc3c2N2CCCN(CCN3CCCC3)CC2)cc1` [compound 182, ethyl 3-((4-butoxyphenyl)sulfonyl)-4-(4-(2-(pyrrolidin-1-yl)ethyl)-1,4-diazepan-1-yl)quinoline-6-carboxylate], the cytotoxicity at 40 µM is 100%.
As to `CCCCCCCCCCOc1ccc(S(=O)(=O)c2cnc3ccc([S+](C)[O-])cc3c2N2CCC(N3CCN(CCO)CC3)CC2)cc1` (centres unmarked) [compound 268, 2-(4-(1-(3-((4-(decyloxy)phenyl)sulfonyl)-6-(methylsulfinyl)quinolin-4-yl)piperidin-4-yl)piperazin-1-yl)ethan-1-ol], the cytotoxicity at 20 µM was found to be 50%.
With `CCCCOc1ccc(S(=O)(=O)c2cnc3ccc(C(=O)OCC)cc3c2N2CCCN(CCN3CCCCC3)CC2)cc1` [compound 181, ethyl 3-((4-butoxyphenyl)sulfonyl)-4-(4-(2-(piperidin-1-yl)ethyl)-1,4-diazepan-1-yl)quinoline-6-carboxylate], the cytotoxicity at 40 µM turned out to be 100%.
Still for that read-out and setting: the same measure for `CCCCOc1ccc(S(=O)(=O)c2cnc3ccc(SC)cc3c2N2CCC(N3CCC(N4CCCCC4)CC3)CC2)cc1` [compound 231, 4-([1,4′:1′,4″-terpiperidin]-1″-yl)-3-((4-butoxyphenyl)sulfonyl)-6-(methylthio)quinoline]: 100%.
For the compound `CCCCCCCCCCCCOc1ccc(S(=O)(=O)c2cnc3ccc([S+](C)[O-])cc3c2N2CCC(N3CCC(N4CCN(C)CC4)CC3)CC2)cc1F` (centres unmarked) [compound 370, 3-((4-(dodecyloxy)-3-fluorophenyl)sulfonyl)-4-(4-(4-methylpiperazin-1-yl)-[1,4′-bipiperidin]-1′-yl)-6-(methylsulfinyl)quinoline], the cytotoxicity at 20 µM is 20%.
In the case of `CCCCCCCCCCOc1ccc(S(=O)(=O)c2cnc3ccc([S+](C)[O-])cc3c2N2CCC(N3CCC(N4CCN(C)CC4)CC3)CC2)cc1` (centres unmarked) [compound 285, 3-((4-(decyloxy)phenyl)sulfonyl)-4-(4-(4-methylpiperazin-1-yl)-[1,4′-bipiperidin]-1′-yl)-6-(methylsulfinyl)quinoline], the cytotoxicity at 10 µM was determined as 60%.
Take `CCCCCCCOc1ccc(S(=O)(=O)c2cnc3ccc(SC)cc3c2N2CCN(CCN3CCCCC3)CC2)cc1` [compound 281, 3-((4-(heptyloxy)phenyl)sulfonyl)-6-(methylthio)-4-(4-(2-(piperidin-1-yl)ethyl)piperazin-1-yl)quinoline]: the cytotoxicity at 20 µM is 50%.
For the compound `COc1ccc(S(=O)(=O)c2cnc3cc(OC)c(OC)cc3c2N2CCCN(C3CCSCC3)CC2)cc1` [compound 329, 6,7-dimethoxy-3-((4-methoxyphenyl)sulfonyl)-4-(4-(tetrahydro-2H-thiopyran-4-yl)-1,4-diazepan-1-yl)quinoline], the cytotoxicity at 40 µM came out at 40%.
On the same count and under the same terms, the same measure for `COc1ccc(S(=O)(=O)c2cnc3cc(OC)c(OC)cc3c2N2CCCN(C3COC3)CC2)cc1` [compound 326, 6,7-dimethoxy-3-((4-methoxyphenyl)sulfonyl)-4-(4-(oxetan-3-yl)-1,4-diazepan-1-yl)quinoline]: 30%.
Consider `CCCCCCCOc1ccc(S(=O)(=O)c2cnc3ccc(SC)cc3c2N2CCC(N3CCCN(C)CC3)CC2)cc1` [compound 249, 3-((4-(heptyloxy)phenyl)sulfonyl)-4-(4-(4-methyl-1,4-diazepan-1-yl)piperidin-1-yl)-6-(methylthio)quinoline], for which the cytotoxicity at 20 µM was found to be 60%.
On to `CCOC(=O)c1ccc2ncc(S(=O)(=O)c3ccc(OC)cc3)c(-n3ccnc3)c2c1` [compound 141, ethyl 4-(1H-imidazol-1-yl)-3-((4-methoxyphenyl)sulfonyl)quinoline-6-carboxylate], for which the cytotoxicity at 20 µM came out at 90%.
Compound `CCCCOc1ccc(S(=O)(=O)c2cnc3ccc(C(=O)NC4C(O)O[C@H](CO)[C@@H](O)[C@@H]4O)cc3c2N2CCCN(C)CC2)cc1` (stereo partly drawn) [compound 193, 3-((4-butoxyphenyl)sulfonyl)-4-(4-methyl-1,4-diazepan-1-yl)-N-((4R,5S,6R)-2,4,5-trihydroxy-6-(hydroxymethyl)tetrahydro-2H-pyran-3-yl)quinoline-6-carboxamide] registered a Cell death of 30%.
For the compound `CCc1ccc(S(=O)(=O)c2cnc3ccc(OC(F)(F)F)cc3c2N2CCC(N(CC)CC)CC2)cc1` [compound 103, N,N-diethyl-1-(3-((4-ethylphenyl)sulfonyl)-6-(trifluoromethoxy)quinolin-4-yl)piperidin-4-amine], the cytotoxicity at 20 µM was determined as 10%.
Regarding `CCCCCCCCCCOc1ccc(S(=O)(=O)c2cnc3ccc([S+](C)[O-])cc3c2N2CCC(N3CCCN(C)CC3)CC2)cc1` (centres unmarked) [compound 267, 3-((4-(decyloxy)phenyl)sulfonyl)-4-(4-(4-methyl-1,4-diazepan-1-yl)piperidin-1-yl)-6-(methylsulfinyl)quinoline], the cytotoxicity at 10 µM came to 5%.
`CCCCCCCOc1ccc(S(=O)(=O)c2cnc3ccc(SC)cc3c2N2CCC(N3CCN(C)CC3)CC2)cc1` [compound 246, 3-((4-(heptyloxy)phenyl)sulfonyl)-4-(4-(4-methylpiperazin-1-yl)piperidin-1-yl)-6-(methylthio)quinoline]: the cytotoxicity at 20 µM came to 95%.
In the case of `CCCCOc1ccc(S(=O)(=O)c2cnc3ccc([S+](C)[O-])cc3c2N2CCC(N3CCN(c4ccc(F)cc4)CC3)CC2)cc1` (centres unmarked) [compound 239, 3-((4-butoxyphenyl)sulfonyl)-4-(4-(4-(4-fluorophenyl)piperazin-1-yl)piperidin-1-yl)-6-(methylsulfinyl)quinoline], the cytotoxicity at 40 µM stood at 40%.
For `CCCCCCCOc1ccc(S(=O)(=O)c2cnc3ccc(SC)cc3c2N2CCN(C3CCN(Cc4ccccc4)C3)CC2)cc1` (centres unmarked) [compound 274, 4-(4-(1-benzylpyrrolidin-3-yl)piperazin-1-yl)-3-((4-(heptyloxy)phenyl)sulfonyl)-6-(methylthio)quinoline], the cytotoxicity at 20 µM was found to be 10%.
Compound `CCCCOc1ccc(S(=O)(=O)c2cnc3ccc(C(=O)NCCO)cc3c2N2CCCN(C)CC2)cc1` [compound 200, 3-((4-butoxyphenyl)sulfonyl)-N-(2-hydroxyethyl)-4-(4-methyl-1,4-diazepan-1-yl)quinoline-6-carboxamide] had a Cell death of 30%.
Turning to `CCCCCCCCCCCCCCCCOc1ccc(S(=O)(=O)c2cnc3ccc([S+](C)[O-])cc3c2N2CCC(N3CCN(CCO)CC3)CC2)cc1` (centres unmarked) [compound 376, 2-(4-(1-(3-((4-(hexadecyloxy)phenyl)sulfonyl)-6-(methylsulfinyl)quinolin-4-yl)piperidin-4-yl)piperazin-1-yl)ethanol], the cytotoxicity at 20 µM amounted to 10%.
In the case of `CCCCOc1ccc(S(=O)(=O)c2cnc3ccc(SC)cc3c2N2CCCN(C3CCSCC3)CC2)cc1` [compound 358, 3-((4-butoxyphenyl)sulfonyl)-6-(methylthio)-4-(4-(tetrahydro-2H-thiopyran-4-yl)-1,4-diazepan-1-yl)quinoline], the Cell death was 0%.
For the compound `CCCCCCCCCCCCOc1ccc(S(=O)(=O)c2cnc3ccc([S+](C)[O-])cc3c2N2CCC(N3CCC(N4CCN(C)CC4)CC3)CC2)cc1` (centres unmarked) [compound 341, 3-((4-(dodecyloxy)phenyl)sulfonyl)-4-(4-(4-methylpiperazin-1-yl)-[1,4′-bipiperidin]-1′-yl)-6-(methylsulfinyl)quinoline], the cytotoxicity at 20 µM worked out at 80%.
For the compound `CCCCOc1ccc(S(=O)(=O)c2cnc3ccc(SC)cc3c2N2CCC(N3CCSCC3)CC2)cc1` [compound 243, 4-(1-(3-((4-butoxyphenyl)sulfonyl)-6-(methylthio)quinolin-4-yl)piperidin-4-yl)thiomorpholine], the cytotoxicity at 40 µM was determined as 20%.
